The values below are quoted from earlier work in Sander's compilation of Henry's law constants (doi:10.1007/978-94-007-2275-0).

This data set can be described thus: Henry solubility constant Hcp at 298.15 K (mol/(m3 Pa)). Conditions: reference: Warneck and Williams (2012); cited value.
In the case of `[Ar]` [argon], the “Henry solubility constant Hcp” value is 1.4e-05.

As for `S=C=S` [carbon disulfide], the “Henry solubility constant Hcp” value is 0.00061.

Consider `[C-]#[O+]` [carbon monoxide], for which the “Henry solubility constant Hcp” value is 9.7e-06.

Take `O=C=S` [carbon oxide sulfide]: the “Henry solubility constant Hcp” value was 0.00021.

Regarding `FC(F)(Cl)Cl` [dichlorodifluoromethane], the “Henry solubility constant Hcp” value is 3e-05.

On to `CSC` [dimethyl sulfide], for which the “Henry solubility constant Hcp” value was 0.0056.

Consider `[N-]=[N+]=O` [dinitrogen monoxide], for which the “Henry solubility constant Hcp” value is 0.00024.

Consider `OO` [hydrogen peroxide], for which the “Henry solubility constant Hcp” value is 910.

Take `COO` [methyl hydroperoxide]: the “Henry solubility constant Hcp” value is 2.9.

Regarding `[O]N=O` [nitrogen dioxide], the “Henry solubility constant Hcp” value is 9.9e-05.

As for `[N]=O` [nitrogen monoxide], the “Henry solubility constant Hcp” value is 1.9e-05.

As for `O=O` [oxygen], the “Henry solubility constant Hcp” value is 1.2e-05.

With `CC(=O)OO[N+](=O)[O-]` [peroxyacetyl nitrate], the “Henry solubility constant Hcp” value was 0.029.

As for `FS(F)(F)(F)(F)F` [sulfur hexafluoride], the “Henry solubility constant Hcp” value is 2.4e-06.

Consider `FC(F)(F)F` [tetrafluoromethane], for which the “Henry solubility constant Hcp” value was 2.1e-06.
